Data as given in patent EP1095650A1, “Double phase time-controlled release system” (Universiteit Leiden, priority 1999, dated 2001).

Test: Dissolution / release profile of BAEE from the delivery system (USP XXIII dissolution paddle apparatus)
Type: physicochemical
Details: PBS pH 7.2, 37±1°C, 100 rpm
Protocol: The dissolution of a coated and a non-coated delivery system according to the present invention was investigated by using the standard USP XXIII dissolution paddle apparatus. The paddle speed was 100 rpm and the dissolution medium was phosphate buffer solution (PBS) pH 7.2 at 37±1°C. PBS was prepared according to the method of USP XXIII. Three replicates for each sample were tested at specific interval times and their mean percent release was calculated.
Two release patterns of example 1, showing the release profiles of BAEE from the system with and without a gelatin enteric coating (capsule) are depicted in Figures 6 and 7, respectively.
Data are expressed as mean ± standard deviation (SD, n=6). (Standard USP XXIII dissolution apparatus is used with Phosphate Buffer Solution (PBS) pH = 7.2 as a dissolution medium. Temperature was 37±1°C and paddle speed was 100 rpm).
Data are expressed as mean ±SD (n=6). (Standard USP XXIII dissolution apparatus is used with PBS pH = 7.2 as a dissolution medium. Temperature was 37±1°C and paddle speed was 100 rpm).

CCOC(=O)[C@H](CCCN=C(N)N)NC(=O)c1ccccc1 [BAEE, N-α-benzoyl-L-arginine ethylester]
lag time (system of Example 1 inserted in gelatin capsule and enteric-coated (Figure 7), compared with non-coated system): increased
amount of drug released after the lag time (system of Example 1 not inserted in gelatin capsule (Figure 6), within a short period of time): whole amount of drug is released
